Data published in patent publication US8263615B2, “Bis-heterocyclic imidazolyl compounds” (Novartis AG, priority 2005, dated 2012).

How the values were obtained:
[1] = tested on: plasma corticosterone; test: in vivo suppression of plasma corticosterone levels in ACTH-stimulated rats; parameters: species or system Wistar rats; conditions: rat plasma, 4 mg/kg p.o., 2 h after dosing vs 1 h before dosing
Protocol: (§1) The aldosterone- and corticosterone-suppressing activity of herein described compounds may be assessed with the following in vivo protocol.
(§2) Adult male Wistar rats weighing between 250 and 350 grams are kept under the usual 12 hour light and 12 hour dark conditions at a temperature of 23° C.±2° C. On the first day of the experiment, the animals receive a subcutaneous injection of a depot ACTH product in a dose of 1.0 mg/kg weight (SYNACTEN-Depot, Novartis, Basel, CH) 16 hours prior to the administration of a test compound. […] An alternative method to stimulate aldosterone secretion consists in subjecting rats to a low salt diet for 48 hours and applying the diuretic furosemide at 10 mg/kg by subcutaneous or intraperitoneal administration 16 hours, respectively 2 hours prior to the start of the experiment. On the second day of the experiment, the animals are divided into test groups of 5 animals and subjected to a first bleed 1 hour prior to the administration of test compound. Subsequently, and 16 hours after the injection of the ACTH product, the animals receive either vehicle or test compound dissolved in vehicle in a variable dose range from 0.02 to 20 mg/kg by oral gavage. The animals are bled two more times from the vena subclavia under isoflurane anesthesia 2 and 6 hours after dosing. The blood is collected in heparin-treated tubes. The plasma samples are obtained by centrifugation and stored at −20° C. An alternative method to bleed animals time-dependently consists in using animals that are chronically carotid catheterized which allows the periodical sampling of up to 0.2 ml of blood using an AccuSampler (DiLab Europe, Lund, Sweden). The blood sampling with the AccuSampler may occur 1 hour prior to the administration of a test compound and 2, 4, 6, 8, 12, 16 and 24 hours thereafter. The blood samples are anti-coagulated with heparin and centrifuged. The aldosterone and corticosterone concentrations of the plasma samples can be determined with a radioimmunoassay as described above for the in vitro test systems.
(§3) The selective suppression of plasma steroid levels as for instance aldosterone in comparison to corticosterone may serve as a measure for in vivo bioavailability and pharmacodynamic enzyme inhibitory activity of the herein described compounds. The evaluation of the data may occur relative to the application of vehicle or quantitatively by determination of the area under the curve (AUC).

[2] = tested on: plasma aldosterone; test: in vivo suppression of plasma aldosterone levels in ACTH-stimulated rats; parameters: species or system Wistar rats; conditions: rat plasma, 4 mg/kg p.o., 2 h after dosing vs 1 h before dosing
Protocol: as §1, §2, §3

Fc1ccc(C2CCn3cncc32)cc1F (stereo not shown) [Example 2, 7-(3,4-Difluorophenyl)-6,7-dihydro-5H-pyrrolo[1,2-c]imidazole]
Corticosterone levels (% change at 2 h) [1]: −32%
Aldosterone levels (% change at 2 h) [2]: −49%

CC(=O)c1ccc(C2CCn3cncc32)cc1 (stereo not shown) [Example 3, 1-[4-(6,7-Dihydro-5H-pyrrolo[1,2-c]imidazol-7-yl)phenyl]ethanone]
Corticosterone levels (% change at 2 h) [1]: −13%
Aldosterone levels (% change at 2 h) [2]: −53%

CSc1ccc(C2CCCn3cncc32)cc1 (stereo not shown) [Example 12, 8-(4-Methylsulphanylphenyl)-5,6,7,8-tetrahydroimidazo[1,5-a]pyridine]
Corticosterone levels (% change at 2 h) [1]: 2%
Aldosterone levels (% change at 2 h) [2]: −61%

O=[N+]([O-])c1ccccc1C1CCCn2cncc21 (stereo not shown) [Example 13, 8-(2-Nitrophenyl)-5,6,7,8-tetrahydroimidazo[1,5-a]pyridine]
Corticosterone levels (% change at 2 h) [1]: 0%
Aldosterone levels (% change at 2 h) [2]: −62%

CC1(C)CCn2cncc2C1c1ccc(C#N)cc1 (stereo not shown) [Example 16, 4-(7,7-Dimethyl-5,6,7,8-tetrahydroimidazo[1,5-a]pyridin-8-yl)benzonitrile]
Corticosterone levels (% change at 2 h) [1]: −3%
Aldosterone levels (% change at 2 h) [2]: −21%
